The text below walks through data of ChEMBL document CHEMBL1134022, “2-Acylimino-3H-thiazoline derivatives: a novel template for platelet GPIIb/IIIa receptor antagonists” (Bioorg Med Chem Lett, 2001).

Test [1] concerns the target T1, Integrin alpha-IIb/beta-3 (Homo sapiens, UniProt P05106+P08514). Briefly: Binding to [125I]- fibrinogen by washed platelet fibrinogen receptor.
The target of test [2] is T1, Integrin alpha-IIb/beta-3. Description: Affinity for purified activated GPIIb/IIIa fibrinogen receptor in ELISA. Format: protein-complex assay.

T1 sequence (P05106 27-788 limits assumed): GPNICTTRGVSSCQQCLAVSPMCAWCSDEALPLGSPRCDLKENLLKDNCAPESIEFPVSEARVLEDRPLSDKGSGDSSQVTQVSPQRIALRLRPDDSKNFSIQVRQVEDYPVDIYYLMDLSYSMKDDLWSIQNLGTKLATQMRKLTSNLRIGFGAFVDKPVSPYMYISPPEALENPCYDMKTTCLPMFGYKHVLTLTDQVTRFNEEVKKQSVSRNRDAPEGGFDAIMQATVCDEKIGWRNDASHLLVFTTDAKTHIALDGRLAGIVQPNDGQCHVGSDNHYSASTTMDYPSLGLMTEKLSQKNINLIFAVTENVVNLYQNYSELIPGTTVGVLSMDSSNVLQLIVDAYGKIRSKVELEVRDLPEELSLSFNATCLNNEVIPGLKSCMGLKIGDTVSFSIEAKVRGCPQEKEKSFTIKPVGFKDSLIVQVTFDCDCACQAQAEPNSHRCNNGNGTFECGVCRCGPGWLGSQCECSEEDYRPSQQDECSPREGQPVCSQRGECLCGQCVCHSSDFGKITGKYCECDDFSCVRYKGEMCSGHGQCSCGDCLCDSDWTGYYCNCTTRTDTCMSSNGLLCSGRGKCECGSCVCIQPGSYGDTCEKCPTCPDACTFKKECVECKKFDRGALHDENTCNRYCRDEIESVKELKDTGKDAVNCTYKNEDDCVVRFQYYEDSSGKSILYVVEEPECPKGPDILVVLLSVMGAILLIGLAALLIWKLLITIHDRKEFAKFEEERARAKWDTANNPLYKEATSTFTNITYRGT
T1 sequence (P08514 32-887 limits assumed): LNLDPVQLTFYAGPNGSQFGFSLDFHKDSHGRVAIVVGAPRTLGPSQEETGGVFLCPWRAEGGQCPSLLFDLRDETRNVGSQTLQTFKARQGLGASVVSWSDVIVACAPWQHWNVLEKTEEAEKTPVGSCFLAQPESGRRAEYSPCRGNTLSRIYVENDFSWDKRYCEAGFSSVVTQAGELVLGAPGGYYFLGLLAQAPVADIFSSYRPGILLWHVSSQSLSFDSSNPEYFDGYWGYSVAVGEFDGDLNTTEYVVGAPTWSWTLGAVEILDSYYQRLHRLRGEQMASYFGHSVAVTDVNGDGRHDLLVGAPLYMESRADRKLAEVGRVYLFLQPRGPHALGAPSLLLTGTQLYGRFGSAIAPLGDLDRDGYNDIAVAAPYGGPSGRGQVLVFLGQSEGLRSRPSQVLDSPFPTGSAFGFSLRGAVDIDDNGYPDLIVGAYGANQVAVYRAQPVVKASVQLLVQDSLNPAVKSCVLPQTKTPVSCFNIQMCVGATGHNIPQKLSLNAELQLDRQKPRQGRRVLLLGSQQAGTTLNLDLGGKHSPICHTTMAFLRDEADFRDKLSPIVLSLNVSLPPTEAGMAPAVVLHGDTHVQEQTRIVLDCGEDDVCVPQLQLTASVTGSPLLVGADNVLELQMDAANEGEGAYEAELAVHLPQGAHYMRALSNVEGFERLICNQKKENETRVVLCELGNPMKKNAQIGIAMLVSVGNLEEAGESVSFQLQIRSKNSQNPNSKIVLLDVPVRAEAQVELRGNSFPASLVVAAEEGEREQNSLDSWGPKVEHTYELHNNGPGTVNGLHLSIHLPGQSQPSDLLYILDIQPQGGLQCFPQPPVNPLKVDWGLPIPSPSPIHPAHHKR
T1 sequence (P08514 891-1039 limits assumed): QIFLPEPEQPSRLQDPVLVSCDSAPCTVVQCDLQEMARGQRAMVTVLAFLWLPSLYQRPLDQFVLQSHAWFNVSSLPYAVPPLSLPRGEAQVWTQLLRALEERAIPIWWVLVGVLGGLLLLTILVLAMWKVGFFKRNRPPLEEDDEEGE

`Cn1c2c(s/c1=N\C(=O)c1ccc(C(=N)N)cc1)C(=O)N(CCC(=O)O)C2`: the results for the IC50 in test [1] and in test [2] were 67.9 nM and 4.76 nM, respectively. For `Cc1c(C(=O)N(C)CCC(=O)O)s/c(=N\C(=O)c2ccc(C(=N)N)cc2)n1C`, in that order: 51.8 nM and 0.89 nM. For `CCn1c(C)c(C(=O)NCCC(=O)O)s/c1=N\C(=O)c1ccc(C(=N)N)cc1`, the half-maximal inhibitory concentration (IC50) in test [2] is 0.12 nM. This counts as sub-nanomolar. Turning to `Cc1nc(NC(=O)c2ccc(C(=N)N)cc2)sc1CCC(=O)O`, the IC50 in test [1] amounted to 60.5 nM; in test [2], 0.57 nM. Consider `CCCCn1c(C)c(C(=O)NCCC(=O)O)s/c1=N\C(=O)c1ccc(C(=N)N)cc1`, for which the results for the IC50 in test [1] and in test [2] were 6.26 nM and 0.13 nM, respectively.

`N=C(N)c1ccc(C(=O)Nc2cccc(CCC(=O)O)c2)cc1`: the IC50 worked out at 105 nM in test [1] and 0.55 nM in test [2]. In test [2], `Cc1c(C(=O)NCCC(=O)O)s/c(=N\C(=O)c2ccc(C(=N)N)cc2)n1Cc1ccccc1` came in with an IC50 of 0.09 nM.

In test [2], `Cc1nc(N(C)C(=O)c2ccc(C(=N)N)cc2)sc1CCC(=O)O` showed an IC50 of 1 nM.
